Source: US7563461B2, “Zinc salt compositions for the prevention of dermal and mucosal irritation” (The Trustees of Columbia University in the City of New York, priority 2002, dated 2009)

Columns and labels:
[1] = cited from earlier work
vaginal mucosa = test: Nonoxynol-9-induced irritation of vaginal mucosa in a rabbit model; settings: gel-based lubricant containing 9% nonoxynol-9, rabbits
Text: This animal model was used to evaluate the anti-irritant efficacy of various zinc salt compositions in vivo.
Two ml of the zinc salt lubricant compositions indicated in Table 3 was instilled into the vagina of each rabbit daily for five consecutive days. At the end of this period, a veterinary pathologist evaluated each animal both macroscopically and microhistopathologically and scored the degree of vaginal irritation that was present. Irritation was quantified as follows: 0=No irritation, 1-4=Minimal Irritant, 5-8=Mild Irritation, 9-11=Moderate Irritation, 12-16=Severe Irritation.

For zinc picolinate, the “water solubility (in words)” value [1] is given as “moderately water soluble”.
With nonoxynol-9 the “irritation of the vaginal mucosa” value (vaginal mucosa) was “mild to moderate irritation”.
